System: hepatocytes
Experiment: kinetic analysis of compound efflux in cultured hepatocytes (Test Sections 1 to 3, fluorescence measurement)
Type: in vitro ADME, rat
Settings: 30 minutes; for ratio of the amount of compound excreted into the bile duct to the totality of compound taken up into the cells (BiRD): (B1-B2)/(C1+C2), EGTA disrupted vs maintained system, 37° C.; for ratio of the amount of compound excreted into the bile duct to the totality of compound taken up into the cells (BiRD) / ratio of the amount of compound excreted via transporter to the amount of compound excreted basolaterally (RexEMTP): pattern 1; for ratio of the amount of compound excreted via transporter to the amount of compound excreted basolaterally (RexEMTP): (B2-B3)/B2, cultured hepatocytes, 37° C. vs 4° C.; for Sup fraction (fraction of the first basolateral efflux), index for tendency to remain or not to remain in the cells: pattern 2: sum of Steps 4, 5 and 6 = 100%, Step 4, 37° C., in %
Method: Hepatocytes were prepared by in-situ collagenase perfusion method. The details are as follows. A rat (5-6 week-old) is anesthetized with pentobarbital and undergoes laparotomy, followed by insertion of a catheter into the portal vein and injection of a preperfusion solution (a Ca^2+ and Mg^2+ free Hanks' solution containing glycol ether diaminetetraacetic acid (EGTA)). After checking that blood is sufficiently removed from the liver, the perfusion is stopped. Perfusion is performed with the perfusate being changed to a collagenase solution. In this embodiment, the perfusion operates with a Hanks' solution containing 0.05% collagenase, but the collagenase solution is not limited to this. After checking that the tissue between the cells has been digested by collagenase, the perfusion is stopped. The liver is excised, sliced in a cooled Hanks' solution, and separated into cells by pipetting. Damaged hepatocytes are removed by centrifugation at 500 G for 5 minutes with an isotonic Percoll solution. The viability of the resulting hepatocytes is determined by the trypan blue-exclusion test. Hepatocytes having a viability of 85% or more are used for culture. Here, hepatocytes having a viability of 85% or more are used for culture, but such culture is not necessarily limited to the condition. In addition, the preparation of hepatocytes is not necessarily limited to that by in situ collagenase perfusion method. The hepatocytes to be used are not limited to those derived from a rat, and the strain of rat is not limited. This embodiment employs hepatocytes, but cells are not limited to this.
(3) Cells prepared by a procedure as above are suspended in a medium. The hepatocytes are suspended at a density of 5×10^5 cells/mL in the medium and plated onto a commercially available culture dish coated with collagen. The density upon plating, the medium, and the culture plate 001 are not limited. The culture plate is illustrated in FIG. 7. A 24-well culture plate having 24 culture regions (wells, 002) is here illustrated, but the culture plate is not limited to this, and any of containers in other shapes may be used as long as it can contain predetermined cells. After plating, culture is started under conditions of 5% CO2 and 37° C. using a CO2 incubator. After 18 hours or more, the first medium change is performed. This embodiment employs a FCS-medium, which is a medium resulting from removal of FCS from the medium (10% FCS+) and supplementation with Matrigel, as the medium to be used for culture 18 hours after the plating. However, the medium can be any medium. After this, medium change with the medium (FCS−) is performed every 24 hours. As described later, testing is performed under three different conditions in Step 5 (Test Sections 1, 2, and 3; described in detail in Step 5), three independent culture plates under the same conditions are prepared at this point. In Steps 0 to 4 and Step 5, the same testing operations are performed in all the three test sections.
The culture supernatant of the cells cultured in Step 0 for 4 days is removed, and 400 μL of Hanks' solution is added as a buffer. The cells are incubated at 37° C. for 10 minutes (FIG. 2, Step 1). The type and amount of buffer are not limited.
The buffer is removed, and then 200 μL of […] carboxydichlorofluorescein (CDF; a fluorescent reagent) is fed to the well. The plate is incubated at 37° C. for 30 minutes and then maintained at 4° C. for 5 minutes (FIG. 2, Step 2). The type, concentration, and amount of the reagent are not limited. CDF emits fluorescence and can therefore be easily quantified as a model reagent with a plate reader. The amount of administration, 200 μL, was chosen so that the cells as a whole in the well would be immersed in the reagent. The concentration of CDF may be a concentration conventionally used for a fluorescence assay of cells. This concentration is preferably applied also as an amount of the reagent for the detection with a plate reader. […]

| Substance | ratio of the amount of compound excreted into the bile duct to the totality of compound taken up into the cells (BiRD) | ratio of the amount of compound excreted via transporter to the amount of compound excreted basolaterally (RexEMTP) | Sup fraction (fraction of the first basolateral efflux), index for tendency to remain or not to remain in the cells |
| --- | --- | --- | --- |
| Rhodamine 123 | 4.92 | 52.52 | 39.29 |
| carboxydichlorofluorescein [CDF] | 18.58 | 41.08 | 70.82 |

Source: patent publication US20220113299A1, “METHOD OF DYNAMICS ANALYSIS FOR COMPOUND IN CELL” (Hitachi High-Tech Corporation, priority 2019, published 2022)
